Results as given in PubChem BioAssay (NCI).
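Assay format: 96-well plates, 48-hour exposure. TGI: total growth inhibition.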

tested on: HCT-116 colon; assay: DTP human tumour cell line panel, 48 h

Question: Which TGI does the source give for `CC1CC(N)=Nc2ccccc2N1` (configuration not stated) here?
Answer: Its TGI is greater than 100 µM.

Question: With `CC(=O)Nc1cc(C(=O)Nc2cc(C(=O)N3CC(CCl)c4c3cc(N)c3ccccc43)nn2C)nn1C` (configuration not stated) as the compound, how does the TGI read?
Answer: Its TGI is 0.412 µM.

Question: `CC(C)(Cc1ccccc1)NC1=NCCO1` was tested. Which TGI did it give?
Answer: Its TGI is greater than 100 µM.

Question: Which TGI does the source give for `O=C(O)c1n[nH]nc1Cl` here?
Answer: The TGI was greater than 100 µM.

Question: `CN(c1ccc(Cl)cc1)S(=O)(=O)c1cccc([N+](=O)[O-])c1` was tested. Which TGI did it give?
Answer: The TGI was greater than 100 µM.

Question: How did the TGI turn out when `NC(Cc1cccc([N+](=O)[O-])c1)C(=O)O` (configuration not stated) was run?
Answer: The TGI was greater than 100 µM.

Question: Which TGI does the source give for `Clc1c(Cl)c(Cl)c2nn(C3CCCO3)nc2c1Cl` (configuration not stated) here?
Answer: Its TGI is greater than 100 µM.

Question: How did the TGI turn out when `CN(c1ccc(Cl)cc1)S(=O)(=O)c1ccc([N+](=O)[O-])cc1` was run?
Answer: Its TGI is greater than 100 µM.

Question: With `CS(=O)(=O)Nc1ccc(N2Cc3cnc4ccc5[nH]ccc2c5c34)cc1` as the compound, how does the TGI read?
Answer: The TGI was 27.8 µM.

Question: How did the TGI turn out when `CC(C)(C)C(=O)OCC1CCC[N+]2(C)CCCCC12` (configuration not stated) was run?
Answer: Its TGI is greater than 100 µM.

Question: `CCn1c(-c2cc(OC)cc(OC)c2)nc2c1C(=O)c1ccccc1C2=O` was tested. Which TGI did it give?
Answer: The TGI was greater than 100 µM.

Question: For `CN1C(=O)N/C(=C\c2ccc(S(=O)(=O)NN)cc2)C1=O`, which TGI is on record?
Answer: Its TGI is greater than 100 µM.

Question: With `Cc1cc(N(CCC#N)CCC#N)ccc1/C(N=Nc1ccc([N+](=O)[O-])cc1)=N\NC(=O)c1cc(Cl)ccc1C(=O)c1ccccc1` as the compound, how does the TGI read?
Answer: The TGI was 23.6 µM.

Question: With `O=C1N=c2ccccc2=C1c1c(O)[nH]c2ccccc12` as the compound, how does the TGI read?
Answer: Its TGI is 88.3 µM.

Question: How did the TGI turn out when `CCCCCCCCCCCCCCCCCCNc1ccn(C2OC(COP(=O)(O)OCC3OC(n4cc(C)c(=O)[nH]c4=O)CC3O)C(O)C2O)c(=O)n1` (configuration not stated) was run?
Answer: Its TGI is 30.8 µM.

Question: Which TGI does the source give for `CC(=O)OCc1cc(CCC(=O)NCCNc2c3ccccc3nc3ccccc23)cc(COC(C)=O)c1O[Si](C)(C)C(C)(C)C` here?
Answer: Its TGI is 31.1 µM.

Question: With `NC(N)=NCCN=C(N)N` as the compound, how does the TGI read?
Answer: Its TGI is greater than 100 µM.

Question: `CC[N+](CC)(CCNCC(N)=O)CC(N)=O` was tested. Which TGI did it give?
Answer: Its TGI is greater than 10 µM.

Question: `COc1ccc(N=C2SC(=N/N=c3\sc4ccccc4n3C)SC2=Nc2ccc(OC)cc2)cc1` was tested. Which TGI did it give?
Answer: Its TGI is greater than 100 µM.

Question: `CCOC(=O)C1=CC(C)(C(=O)OCC)Nc2c(nc(OC)n(C)c2=O)N1` (configuration not stated) was tested. Which TGI did it give?
Answer: The TGI was greater than 10 µM.

Question: Which TGI does the source give for `Cc1ccc(/C=N/n2c(=O)[nH]c3ccccc3c2=O)cc1` here?
Answer: Its TGI is greater than 100 µM.

Question: Which TGI does the source give for `S=C(c1c[nH]c2ccccc12)N1CCOCC1` here?
Answer: The TGI was greater than 100 µM.

Question: `Cc1nc2ccccc2c(=O)n1NC(=O)c1ccc(CS)cc1` was tested. Which TGI did it give?
Answer: The TGI was 16.9 µM.

Question: With `CNc1ccc(OC)cc1S(=O)(=O)c1ccccc1[N+](=O)[O-]` as the compound, how does the TGI read?
Answer: The TGI was greater than 100 µM.

Question: Which TGI does the source give for `O=[N+]([O-])c1ccc(/C=N/n2c(CO)nc3ccccc32)o1` here?
Answer: Its TGI is 7.86 µM.

tested on: A549 NSCLC; assay: DTP human tumour cell line panel, 48 h

Question: With `CC1CC(N)=Nc2ccccc2N1` (configuration not stated) as the compound, how does the TGI read?
Answer: Its TGI is greater than 100 µM.

Question: For `CC(=O)Nc1cc(C(=O)Nc2cc(C(=O)N3CC(CCl)c4c3cc(N)c3ccccc43)nn2C)nn1C` (configuration not stated), which TGI is on record?
Answer: The TGI was 2.85 µM.

Question: `CC(C)(Cc1ccccc1)NC1=NCCO1` was tested. Which TGI did it give?
Answer: Its TGI is greater than 100 µM.

Question: With `O=C(O)c1n[nH]nc1Cl` as the compound, how does the TGI read?
Answer: The TGI was greater than 100 µM.

Question: `CN(c1ccc(Cl)cc1)S(=O)(=O)c1cccc([N+](=O)[O-])c1` was tested. Which TGI did it give?
Answer: The TGI was greater than 100 µM.

Question: `NC(Cc1cccc([N+](=O)[O-])c1)C(=O)O` (configuration not stated) was tested. Which TGI did it give?
Answer: The TGI was greater than 100 µM.

Question: With `Clc1c(Cl)c(Cl)c2nn(C3CCCO3)nc2c1Cl` (configuration not stated) as the compound, how does the TGI read?
Answer: The TGI was greater than 100 µM.

Question: For `CN(c1ccc(Cl)cc1)S(=O)(=O)c1ccc([N+](=O)[O-])cc1`, which TGI is on record?
Answer: Its TGI is greater than 100 µM.

Question: `CS(=O)(=O)Nc1ccc(N2Cc3cnc4ccc5[nH]ccc2c5c34)cc1` was tested. Which TGI did it give?
Answer: The TGI was greater than 100 µM.

Question: Which TGI does the source give for `CC(C)(C)C(=O)OCC1CCC[N+]2(C)CCCCC12` (configuration not stated) here?
Answer: The TGI was greater than 100 µM.

Question: With `CCn1c(-c2cc(OC)cc(OC)c2)nc2c1C(=O)c1ccccc1C2=O` as the compound, how does the TGI read?
Answer: The TGI was greater than 100 µM.

Question: Which TGI does the source give for `CN1C(=O)N/C(=C\c2ccc(S(=O)(=O)NN)cc2)C1=O` here?
Answer: Its TGI is greater than 100 µM.

Question: How did the TGI turn out when `Cc1cc(N(CCC#N)CCC#N)ccc1/C(N=Nc1ccc([N+](=O)[O-])cc1)=N\NC(=O)c1cc(Cl)ccc1C(=O)c1ccccc1` was run?
Answer: The TGI was greater than 100 µM.

Question: How did the TGI turn out when `O=C1N=c2ccccc2=C1c1c(O)[nH]c2ccccc12` was run?
Answer: Its TGI is greater than 100 µM.

Question: Which TGI does the source give for `CCCCCCCCCCCCCCCCCCNc1ccn(C2OC(COP(=O)(O)OCC3OC(n4cc(C)c(=O)[nH]c4=O)CC3O)C(O)C2O)c(=O)n1` (configuration not stated) here?
Answer: The TGI was 32.4 µM.

Question: With `CC(=O)OCc1cc(CCC(=O)NCCNc2c3ccccc3nc3ccccc23)cc(COC(C)=O)c1O[Si](C)(C)C(C)(C)C` as the compound, how does the TGI read?
Answer: The TGI was 24.4 µM.

Question: `NC(N)=NCCN=C(N)N` was tested. Which TGI did it give?
Answer: Its TGI is greater than 100 µM.

Question: For `CC[N+](CC)(CCNCC(N)=O)CC(N)=O`, which TGI is on record?
Answer: Its TGI is greater than 10 µM.

Question: How did the TGI turn out when `COc1ccc(N=C2SC(=N/N=c3\sc4ccccc4n3C)SC2=Nc2ccc(OC)cc2)cc1` was run?
Answer: The TGI was greater than 100 µM.

Question: How did the TGI turn out when `CCOC(=O)C1=CC(C)(C(=O)OCC)Nc2c(nc(OC)n(C)c2=O)N1` (configuration not stated) was run?
Answer: Its TGI is greater than 10 µM.

Question: For `Cc1ccc(/C=N/n2c(=O)[nH]c3ccccc3c2=O)cc1`, which TGI is on record?
Answer: The TGI was greater than 100 µM.

Question: For `Cc1nc2ccccc2c(=O)n1NC(=O)c1ccc(CS)cc1`, which TGI is on record?
Answer: The TGI was 64.5 µM.

Question: Which TGI does the source give for `CNc1ccc(OC)cc1S(=O)(=O)c1ccccc1[N+](=O)[O-]` here?
Answer: Its TGI is greater than 100 µM.

Question: With `O=[N+]([O-])c1ccc(/C=N/n2c(CO)nc3ccccc32)o1` as the compound, how does the TGI read?
Answer: Its TGI is 36.5 µM.

tested on: U251 CNS; assay: DTP human tumour cell line panel, 48 h

Question: How did the TGI turn out when `CC1CC(N)=Nc2ccccc2N1` (configuration not stated) was run?
Answer: Its TGI is greater than 100 µM.

Question: How did the TGI turn out when `CC(=O)Nc1cc(C(=O)Nc2cc(C(=O)N3CC(CCl)c4c3cc(N)c3ccccc43)nn2C)nn1C` (configuration not stated) was run?
Answer: Its TGI is 0.856 µM.

Question: How did the TGI turn out when `CC(C)(Cc1ccccc1)NC1=NCCO1` was run?
Answer: Its TGI is greater than 100 µM.

Question: With `O=C(O)c1n[nH]nc1Cl` as the compound, how does the TGI read?
Answer: The TGI was greater than 100 µM.

Question: For `CN(c1ccc(Cl)cc1)S(=O)(=O)c1cccc([N+](=O)[O-])c1`, which TGI is on record?
Answer: The TGI was greater than 100 µM.

Question: `NC(Cc1cccc([N+](=O)[O-])c1)C(=O)O` (configuration not stated) was tested. Which TGI did it give?
Answer: Its TGI is greater than 100 µM.

Question: Which TGI does the source give for `Clc1c(Cl)c(Cl)c2nn(C3CCCO3)nc2c1Cl` (configuration not stated) here?
Answer: The TGI was greater than 100 µM.

Question: With `CN(c1ccc(Cl)cc1)S(=O)(=O)c1ccc([N+](=O)[O-])cc1` as the compound, how does the TGI read?
Answer: The TGI was greater than 100 µM.
